Patent US8372831B2, “Isoxazoline linked pyrrolo[2,1-c][1,4]benzodiazepine hybrids as potential anticancer agents and the process for preparation thereof” (Council of Scientific & Industrial Research, priority 2008, dated 2013)

Tested on: duplex-form calf thymus DNA (CT-DNA)
Assay: Thermal denaturation studies with calf thymus DNA
Assay type: binding
Details: [PBD]:[DNA] molar ratio 1:5, CT-DNA 100 μM, ligand 20 μM, pH 7.00
Description: Compounds have been subjected to thermal denaturation studies with duplex-form calf thymus DNA (CT-DNA) using a modification of a reported procedure. Working solutions in aqueous buffer (10 mM NaH2PO4/Na2HPO4, 1 mM Na2EDTA, pH 7.00+0.01) containing CT-DNA (100 (μm in phosphate) and the PBD (20(μm) have been prepared by addition of concentrated PBD solutions in DMSO to obtain a fixed [PBD]/[DNA] molar ratio of 1:5. The DNA-PBD solutions have been incubated at 37° C. for 0 and 18 hrs prior to analysis. Samples have been monitored at 260 nm using a Beckman DU-800 spectrophotometer fitted with high performance temperature controller, and heated at 1° C. min^−1 in the 40-110° C. range. DNA helix→coil transition temperatures (Tm) have been obtained from the maxima in the d(A260)/d T derivative plots. Drug-induced alterations in DNA melting behavior are given by: ΔTm=Tm(DNA+PBD)−Tm(DNA alone), where the Tm value for the PBD-free CT-DNA is 68.5±0.01.
The DNA-binding for these novel C8-linked isoxazoline-PBD hybrids has been examined by thermal denaturation studies using calf thymus CT-DNA. […] Data for 5a-c, 9b and 9g and DC-81 are included in Table 4 for comparison.

Compound	ΔTm after incubation at 37° C. for 0 hrs	ΔTm after incubation at 37° C. for 18 hrs
COc1cc(C2=NOC(c3cc(OC)c(OC)c(OC)c3)C2)ccc1OCCCCCOc1cc2c(cc1OC)C(=O)N1CCC[C@H]1C=N2 (stereo partly drawn) [Compound 5c, (11aS)-7-(methyloxy)-8-(5-[(2-(methyloxy)-4-5-[3,4,5-tri(methyloxy)phenyl]-4,5-dihydro-3-isoxazolylphenyl)oxy]pentyloxy)-2,3,5,11a-tetrahydro-1H benzo[e]pyrrolo[1,2-a][1,4]diazepi-5-one]	7.0 °C	8 °C
COc1cc2c(cc1O)N=CC1CCCN1C2=O (centres unmarked) [DC-81, reference compound]	0.3 °C	0.7 °C
COc1cc2c(cc1OCCCCCOc1c(OC)cc(C3CC(c4ccc(OC)c(OC)c4OC)=NO3)cc1OC)N=C[C@@H]1CCCN1C2=O (stereo partly drawn) [Compound 9g, (11aS)-8-(5-[(2,6-di(methyloxy)-4-3-[2,3,4-tri(methyloxy)phenyl]-4,5-dihydro-5-isoxazolylphenyl)oxy]pentyloxy)-7-(methyloxy)-2,3,5,11a-tetrahydro-1H-benzo[e]pyrrolo[1,2-a][1,4]diazepin-5-one]	1.4 °C	2.1 °C
COc1cc(C2=NOC(c3cc(OC)c(OC)c(OC)c3)C2)ccc1OCCCOc1cc2c(cc1OC)C(=O)N1CCC[C@H]1C=N2 (stereo partly drawn) [Compound 5a, (11aS)-7-(methyloxy)-8-(3-[(2-(methyloxy)-4-5-[3,4,5-tri(methyloxy)phenyl]-4-,5-dihydro-3-isoxazolylphenyl)oxy]propyloxy)-2,3,5,11a-tetrahydro-1H benzo[e]pyrrolo[1,2-a][1,4]diazepi-5-one]	3.9 °C	6.0 °C
